Data set [1] relates to Plasmodium falciparum. Kind of data set: Antiplasmodial activity against schizont blood stage Plasmodium falciparum. The data set is classed as functional, organism-based.
Data set [2] concerns Plasmodium yoelii. Kind of data set: Antiplasmodial activity against blood stage schizont Plasmodium yoelii. Format: functional, organism-based.
The test system of data set [3] is Plasmodium cynomolgi. Put plainly: Antiplasmodial activity against hypnozoite liver stage Plasmodium cynomolgi. Format: functional, organism-based.
In data set [4] the test system is Plasmodium cynomolgi. Kind of data set: Antiplasmodial activity against schizont liver stage Plasmodium cynomolgi. The data set is classed as functional, organism-based.
A short description of data set [5]: Solubility of the compound at pH 6.8 by HT-equilibrium solubility assay. Format: physicochemical. As to conditions: buffer.
A short description of data set [6]: Hepatic extraction ratio in mouse liver microsomes by LC/MS analysis. The data set is classed as ADME. As to conditions: read-out: ERH. Background: Liver microsomes are a subcellular fraction often used to study metabolism.
Data set [7] is described as follows: Half life in mouse liver microsomes by LC/MS analysis. Format: ADME.
Data set [8] in a line: Cmax in mouse at 20 mg/kg, po. Format: ADME, organism-based. More on the design: dose 20 mg/kg, route oral. As to conditions: in vivo.
A short description of data set [9]: Tmax in mouse at 20 mg/kg, po. The data set is classed as ADME, organism-based. The settings on record: in vivo. More on the design: dose 20 mg/kg, route oral.
Data set [10] is described as follows: AUC in mouse at 20 mg/kg, po. As to conditions: plasma. Also on record: dose 20 mg/kg, route oral. The data set is classed as ADME, organism-based.
Data set [11] in a line: Half life in mouse at 20 mg/kg, po. The data set is classed as ADME, organism-based. As to conditions: in vivo. Also on record: dose 20 mg/kg, route oral.
Data set [12] is described as follows: Oral bioavailability in mouse at 20 mg/kg. Format: ADME, organism-based. The settings on record: in vivo.
Data set [13] can be described thus: Volume of distribution at steady state in mouse at 5 mg/kg, iv. Also on record: dose 5 mg/kg, route intravenous. Format: ADME, organism-based. The settings on record: in vivo, read-out: Vdss.
Data set [14] can be described thus: Clearance in mouse at 5 mg/kg, iv. As to conditions: in vivo. More on the design: dose 5 mg/kg, route intravenous. Format: ADME, organism-based.
Data set [15] can be described thus: Half life in mouse at 5 mg/kg, iv. The data set is classed as ADME, organism-based. Also on record: dose 5 mg/kg, route intravenous. The settings on record: in vivo.
The test system of data set [16] is Plasmodium berghei. Put plainly: Antimalarial activity against Plasmodium berghei infected in mouse assessed as animal protection at 30 mg/kg, po by causal prophylactic activity assay relative to untreated control. Format: functional.

In brackets after ≈: the same amount, converted by molar mass.

Broadly, the IC50 is the concentration that inhibits the measured activity by half. The low end stands for greater potency, the high end for weaker potency. For the compound `CN(C(=O)c1ccc2ncc(-c3ccc(C#N)cc3)n2c1)c1ccccc1`, the IC50 is 600 nM in data set [1], above 10000 nM in data set [2] and above 10000 nM in data set [3].

As to `CN(C(=O)c1ccc2ncc(-c3ccc(C(F)(F)F)cc3)n2c1)c1ccc(C#N)cc1`, the 50% inhibitory concentration (IC50) in data set [1] is 11 nM; in [2] it was 5400 nM; in [3] it was above 10000 nM.

Usually solubility (thermodynamic) stands for the concentration in solution at equilibrium with solid. Usually half-life stands for how long it takes for the measured level to halve. Read a high half-life as slow loss. For the compound `CN(C(=O)c1cn2c(-c3ccc(C(F)(F)F)cc3)cnc2cn1)c1ccc(C#N)cc1`, the half-maximal inhibitory concentration (IC50) in data set [1] worked out at 63 nM; in [2] it was 160 nM; in [4], 120 nM; in data set [3], 810 nM. In data set [5], the thermodynamic solubility was determined as 9 µM (≈ 3.79 µg/mL). Moreover, the hepatic extraction ratio in data set [6] was found to be 0.4. The same compound displayed a half-life in data set [7] of 1.37 h.

Regarding `CN(C(=O)c1cn2c(-c3ccc(C(F)(F)F)cc3)cnc2cn1)c1ccc(Cl)nc1`, the IC50 in data set [1] was found to be 275 nM; in [2], 200 nM.

On to `CN(C(=O)c1cn2c(-c3ccc(C(F)(F)F)cc3)cnc2cn1)c1ccc(C#N)nc1`, for which the IC50 in data set [1] amounted to 1630 nM; in data set [2], 3630 nM.

`Cc1ccc(N(C)C(=O)c2cn3c(-c4ccc(C(F)(F)F)cc4)cnc3cn2)nn1`: the IC50 in data set [1] and in data set [2] was above 10000 nM throughout.

With `CN(C(=O)c1cn2c(-c3ccc(C(F)(F)F)cc3)cnc2cn1)c1nc2ccccc2s1`, the IC50 is 9580 nM in [1] and above 10000 nM in data set [2].

With `CN(Cc1ccc(F)cc1)C(=O)c1cn2c(-c3ccc(C(F)(F)F)cc3)cnc2cn1`, the IC50 in [1] and in [2] was above 10000 nM in each case.

`CN1CCC(N(C)C(=O)c2cn3c(-c4ccc(C(F)(F)F)cc4)cnc3cn2)CC1`: the half-maximal inhibitory concentration (IC50) in data set [1] and in [2] was above 10000 nM in each case.

As for `CN(C(=O)c1cn2c(-c3ccc(-c4ccn[nH]4)cc3)cnc2cn1)c1ccc(C#N)cc1`, the IC50 is 32 nM in data set [1], 46 nM in data set [2], 300 nM in data set [4] and 300 nM in data set [3].

By Cmax is commonly meant the highest concentration seen after dosing. A word on the Tmax: it is the time at which the peak concentration occurs. As a reminder, the AUC is concentration integrated over time. A lower AUC goes with less exposure. A word on the bioavailability: it is dose-corrected exposure relative to a reference, in per cent. Higher therefore signals good availability. The term clearance denotes the rate of elimination divided by the concentration. With `CN(C(=O)c1cn2c(-c3ccc(-c4nnc(N)s4)cc3)cnc2cn1)c1ccc(C#N)cc1`, the IC50 in data set [1] was 22 nM; in data set [2], 19 nM; in data set [4] it was 40 nM; in data set [3], 60 nM. This compound also came in with a solubility (thermodynamic) in data set [5] below 5 µM. In data set [8], this compound returned a Cmax of 0.02 µM. Further, the time of peak concentration (Tmax) in data set [9] came out at 1.7 h. Also, the AUC in [10] came to 0.12 µM·h. Moreover, the half-life in data set [11] was 3.39 h; in [15], 2.12 h. The same compound came in with a bioavailability in data set [12] of 0.24%. Also, the Vd in [13] came to 0.99 L/kg. In [14], this compound came in with a clearance of 16.2 mL/min/kg.

In the case of `CN(C(=O)c1cn2c(-c3ccc(C(N)=O)cc3)cnc2cn1)c1ccc(F)cc1`, the IC50 in data set [1] was 56 nM; in data set [2], 62 nM; in data set [4], 190 nM; in data set [3], 260 nM. The compound further showed a thermodynamic solubility in data set [5] of 170 µM (≈ 66.2 µg/mL). Besides, the hepatic extraction ratio in data set [6] is 0.52. The half-life in data set [7] is 0.95 h; in [11] it was 1.35 h; in data set [15], 0.62 h. For the same compound, in data set [8], the Cmax was determined as 8.3 µM. Moreover, the Tmax in data set [9] is 0.5 h. Further, the AUC in [10] was found to be 11.1 µM·h. In data set [12], this compound had a bioavailability of 51.6%. The Vd in data set [13] is 0.9 L/kg. The same compound displayed a clearance in data set [14] of 39.7 mL/min/kg. The Activity in [16] worked out at 80%.

As to `CNC(=O)c1ccc(-c2cnc3cnc(C(=O)N(C)c4ccc(C#N)cc4)cn23)cc1`, the IC50 in [1] turned out to be 131 nM; in data set [2] it was 290 nM; in [4], 81 nM; in data set [3], 94 nM. For the same compound, the thermodynamic solubility in data set [5] was 430 µM (≈ 176 µg/mL). In addition, in [6], the hepatic extraction ratio is 0.33. Also, the half-life is 2.08 h in [7], 1.63 h in data set [11] and 0.42 h in data set [15]. Moreover, the Cmax in [8] was found to be 5.2 µM. Further, in data set [9], the Tmax was 0.5 h. The compound further registered an AUC in data set [10] of 12.4 µM·h. For the same compound, the bioavailability in data set [12] was 51.9%. In data set [13], the Vd came to 1.02 L/kg. This compound came in with a clearance in data set [14] of 34 mL/min/kg. The Activity in data set [16] turned out to be 80%.

Regarding `CNC(=O)c1ccc(-c2cnc3cnc(C(=O)N(C)c4ccc(Cl)cc4)cn23)cc1`, the IC50 in [1] amounted to 58 nM; in data set [2] it was 36 nM; in data set [4], 105 nM; in [3], 196 nM. Besides, the solubility (thermodynamic) in [5] was 820 µM (≈ 344 µg/mL). In addition, the hepatic extraction ratio in data set [6] turned out to be 0.49. The figures for the half-life in [7], in data set [11] and in [15] were 1.05 h, 3.63 h and 0.83 h, respectively. Besides, in [8], the Cmax stood at 20.5 µM. The Tmax in data set [9] is 0.5 h. In [10], this compound gave an AUC of 31.2 µM·h. In data set [12], the bioavailability was determined as 60%. Besides, in [13], the Vd turned out to be 0.96 L/kg. In addition, the clearance in [14] came out at 19.3 mL/min/kg.

These data come from ChEMBL document CHEMBL3352748, “Lead optimization of imidazopyrazines: a new class of antimalarial with activity on Plasmodium liver stages” (ACS Med Chem Lett, 2014).
